In patent US11046726B2, “Nucleotide analogues” (QIAGEN SCIENCES, LLC, priority 2015, dated 2021):

Assay: Cleavage experiments with a variety of cleavage agents, reaction mixtures analyzed by RP-HPLC (FIG. 77, 78A-78B)
Details: after 10 minutes of incubation with cleave reagent
Excerpt: In addition to these a variety of suitable cleaving agents can be used such as Bis(2-mercaptoethyl)sulfone (BMS) and N,N′-dimethyl-N,N′-bis(mercaptoacetyl)hydrazine (DMH) (Singh et al., Bioorg. Chem., 22, 109-115 (1994). Reactions can be further catalyzed by inclusion of selenols (Singh et al. Anal Biochem. 1995 Nov. 20; 232(1):86-91 [18]). Borohydrides, such as sodium borohydrides can also be used for this purpose (Stahl et al., Anal. Chem., 1957, 29 (1), pp 151 155 [19]) as well as ascorbic acid (Nardai et al., J. Biol. Chem. 276, 8825-8828 (2001)). In addition, enzymatic methods for cleavage of disulfide bonds ae also well known such as disulfide and thioreductase and can be used with compounds of the present invention (Holmgren et. al., Methods in Enzymology, Volume 252, 1995, Pages 199-208 [21]).

Row | SMILES | cleavage of linker and 3′-protective group by cleavage agent
1 | OC(=S)CCC(O)=S [dithiosuccinic acid] | selective cleavage of 3′-O-protective group
2 | NCCS [cysteamine] | full cleavage of both linker and the 3′-protective groups
3 | N[C@@H](CS)C(=O)O [L-cysteine] | full cleavage of both linker and the 3′-protective groups
4 | O[C@H](CS)[C@H](O)CS (racemic) [DTT, dithiothreitol] | full cleavage of both linker and the 3′-protective groups
